Results: ChEMBL document CHEMBL1201862, “PubChem BioAssay data set” (2004)
Active and inactive are the calls of the source.

Assays:
[1] = THP-1 cell cytotoxicity, dose response, cytotoxicity control for non-replicating M. tuberculosis project (AID 489025); assay type: functional
cells [2] = assay type: functional
Cytochrome P450 3A4 [3] = biological target: T1, Cytochrome P450 3A4 (Homo sapiens, UniProt P08684); settings: Potency
[4] = biological target: T2, Ubiquitin-conjugating enzyme E2 N (Homo sapiens, UniProt P61088); assay type: functional;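 further: Dose-response confirmation in a TR-FRET assay detecting UBC13-driven polyubiquitin chain formation, inhibition measured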
T2 sequence (P61088 whole entry): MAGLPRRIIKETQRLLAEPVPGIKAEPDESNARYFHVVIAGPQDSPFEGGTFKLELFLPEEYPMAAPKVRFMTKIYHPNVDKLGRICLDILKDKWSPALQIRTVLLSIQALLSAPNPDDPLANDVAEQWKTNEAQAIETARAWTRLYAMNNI

[5] = biological target: T3, High affinity choline transporter 1 (Homo sapiens, UniProt Q9GZV3); assay: CHT inhibitors, dose response, cell-based, 5-point CRC, membrane potential dye (AID 504840); assay type: functional
T3 sequence (Q9GZV3 whole entry): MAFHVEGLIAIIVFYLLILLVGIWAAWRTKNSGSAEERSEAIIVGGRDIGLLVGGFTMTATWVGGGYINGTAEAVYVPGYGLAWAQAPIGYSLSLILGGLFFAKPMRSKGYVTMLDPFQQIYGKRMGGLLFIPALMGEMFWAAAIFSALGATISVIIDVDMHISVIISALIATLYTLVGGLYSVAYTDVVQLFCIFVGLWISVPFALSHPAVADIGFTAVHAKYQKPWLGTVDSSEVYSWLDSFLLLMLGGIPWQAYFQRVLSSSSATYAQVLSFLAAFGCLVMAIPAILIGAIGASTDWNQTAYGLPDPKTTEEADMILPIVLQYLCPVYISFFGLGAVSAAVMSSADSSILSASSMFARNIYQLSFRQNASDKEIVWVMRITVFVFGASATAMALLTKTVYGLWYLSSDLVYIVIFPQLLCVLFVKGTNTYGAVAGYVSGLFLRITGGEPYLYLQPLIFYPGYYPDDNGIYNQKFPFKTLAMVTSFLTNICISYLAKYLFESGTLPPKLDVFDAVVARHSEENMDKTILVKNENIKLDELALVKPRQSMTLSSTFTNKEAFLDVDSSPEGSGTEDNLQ

Melanocortin receptor 4 = Melanocortin receptor 4 (Homo sapiens, UniProt P32245); assay: MC4R antagonist potency on cAMP, dose response, cell-based, TR-FRET, biased antagonists (AID 602298); assay type: functional;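 further: antagonist potency against agonist-stimulated cAMP production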
Melanocortin receptor 4, sequence (P32245 whole entry): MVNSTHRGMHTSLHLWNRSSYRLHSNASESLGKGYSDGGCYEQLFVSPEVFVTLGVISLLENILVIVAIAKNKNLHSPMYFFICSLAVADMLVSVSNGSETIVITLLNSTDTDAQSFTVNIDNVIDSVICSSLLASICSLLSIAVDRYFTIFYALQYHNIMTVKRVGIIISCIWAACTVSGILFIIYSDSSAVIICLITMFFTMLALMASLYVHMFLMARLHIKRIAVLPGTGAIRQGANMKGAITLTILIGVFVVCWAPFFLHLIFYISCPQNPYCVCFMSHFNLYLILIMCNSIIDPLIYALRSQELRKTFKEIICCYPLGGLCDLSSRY

[6] = nonselective inhibitors of cellular cAMP signaling, dose response, counter-screen for MC4R biased antagonist project, cell-based, TR-FRET cAMP detection (AID 602305); assay type: functional;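 further: U2OS cells stimulated with forskolin near its EC80 as the cAMP inducer; potency is for inhibition of forskolin-stimulated cAMP signaling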
Genome polyprotein = Genome polyprotein (dengue virus type 2, UniProt P29990); assay: Dengue-2 NS5 methyltransferase inhibitors, primary screen, biochemical, confirmation dose response (AID 588689); assay type: functional
Genome polyprotein, sequence (P29990 2492-3391 limits assumed): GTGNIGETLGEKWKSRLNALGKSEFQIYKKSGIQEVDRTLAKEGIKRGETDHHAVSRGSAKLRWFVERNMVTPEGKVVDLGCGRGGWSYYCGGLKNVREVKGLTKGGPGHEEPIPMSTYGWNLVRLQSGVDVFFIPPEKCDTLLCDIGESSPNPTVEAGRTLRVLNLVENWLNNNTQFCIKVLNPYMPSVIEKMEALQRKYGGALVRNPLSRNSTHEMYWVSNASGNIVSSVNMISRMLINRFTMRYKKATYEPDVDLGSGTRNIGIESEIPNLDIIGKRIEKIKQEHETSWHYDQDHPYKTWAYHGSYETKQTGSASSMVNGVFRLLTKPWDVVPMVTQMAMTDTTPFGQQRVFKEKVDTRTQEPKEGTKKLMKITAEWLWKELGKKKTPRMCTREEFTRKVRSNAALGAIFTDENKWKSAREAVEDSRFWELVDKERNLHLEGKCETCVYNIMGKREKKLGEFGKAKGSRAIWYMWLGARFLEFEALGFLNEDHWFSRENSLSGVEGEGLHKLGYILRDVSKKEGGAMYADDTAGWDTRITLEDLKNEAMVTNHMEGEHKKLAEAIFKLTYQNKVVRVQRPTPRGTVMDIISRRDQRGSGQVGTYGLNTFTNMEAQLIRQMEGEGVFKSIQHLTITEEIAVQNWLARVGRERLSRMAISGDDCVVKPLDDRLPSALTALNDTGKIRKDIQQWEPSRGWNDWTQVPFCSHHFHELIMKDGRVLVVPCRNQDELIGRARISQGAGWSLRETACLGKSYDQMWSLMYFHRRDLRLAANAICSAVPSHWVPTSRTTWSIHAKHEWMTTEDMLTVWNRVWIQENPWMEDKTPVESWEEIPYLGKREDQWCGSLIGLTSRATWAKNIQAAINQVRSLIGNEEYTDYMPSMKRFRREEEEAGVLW

cells [7] = assay type: functional, cell-based
cells [8] = assay type: functional, cell-based; remark: listed apart in the source
HeLa = assay: HeLa cell cytotoxicity, dose response, cytotoxicity control, ATP luminescence, cherry-pick samples (AID 687004); assay type: functional, cell-based; settings: Homo sapiens
[9] = biological target: T4, Apoptotic protease-activating factor 1 (Homo sapiens, UniProt O14727); assay type: functional
T4 sequence (O14727 whole entry): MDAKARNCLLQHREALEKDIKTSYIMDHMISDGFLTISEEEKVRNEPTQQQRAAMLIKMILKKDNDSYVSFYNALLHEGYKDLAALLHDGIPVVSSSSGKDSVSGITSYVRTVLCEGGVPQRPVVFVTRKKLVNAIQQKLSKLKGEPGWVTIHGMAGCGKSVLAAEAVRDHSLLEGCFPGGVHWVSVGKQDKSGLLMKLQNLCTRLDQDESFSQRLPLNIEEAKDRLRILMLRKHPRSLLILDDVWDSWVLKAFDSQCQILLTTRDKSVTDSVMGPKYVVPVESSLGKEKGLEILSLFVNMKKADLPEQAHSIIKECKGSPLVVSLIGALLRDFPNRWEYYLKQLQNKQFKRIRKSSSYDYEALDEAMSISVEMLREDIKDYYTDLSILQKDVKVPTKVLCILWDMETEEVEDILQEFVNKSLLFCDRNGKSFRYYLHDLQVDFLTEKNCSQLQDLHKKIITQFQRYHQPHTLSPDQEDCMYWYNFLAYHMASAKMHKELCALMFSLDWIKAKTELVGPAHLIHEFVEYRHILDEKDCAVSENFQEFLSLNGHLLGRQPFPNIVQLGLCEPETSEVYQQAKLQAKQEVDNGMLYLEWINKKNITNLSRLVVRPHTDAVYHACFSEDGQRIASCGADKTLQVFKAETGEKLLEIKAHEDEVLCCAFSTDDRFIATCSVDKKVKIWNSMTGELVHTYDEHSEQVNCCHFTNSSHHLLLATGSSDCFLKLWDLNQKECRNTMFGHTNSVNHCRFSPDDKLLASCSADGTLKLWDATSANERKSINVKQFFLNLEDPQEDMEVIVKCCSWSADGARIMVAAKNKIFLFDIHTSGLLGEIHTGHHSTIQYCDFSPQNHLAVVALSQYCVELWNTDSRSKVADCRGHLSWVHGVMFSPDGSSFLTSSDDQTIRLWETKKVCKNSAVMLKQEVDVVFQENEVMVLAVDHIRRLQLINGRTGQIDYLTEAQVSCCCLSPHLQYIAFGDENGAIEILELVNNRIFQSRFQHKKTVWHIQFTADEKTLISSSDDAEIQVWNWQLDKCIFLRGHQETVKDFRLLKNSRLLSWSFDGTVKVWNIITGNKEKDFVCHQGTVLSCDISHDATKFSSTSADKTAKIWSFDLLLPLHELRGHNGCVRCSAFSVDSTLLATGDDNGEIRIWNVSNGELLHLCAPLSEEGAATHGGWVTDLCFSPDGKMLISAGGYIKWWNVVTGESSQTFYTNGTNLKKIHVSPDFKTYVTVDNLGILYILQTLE

[10] = biological target: Glucose-6-phosphate 1-dehydrogenase (Homo sapiens, UniProt P11413); assay: human G6PD enzyme inhibitors, dose response, selectivity assay for P. falciparum G6PD inhibitor project, biochemical, fluorescence (AID 504792); assay type: functional
Glucose-6-phosphate 1-dehydrogenase, sequence (P11413 whole entry): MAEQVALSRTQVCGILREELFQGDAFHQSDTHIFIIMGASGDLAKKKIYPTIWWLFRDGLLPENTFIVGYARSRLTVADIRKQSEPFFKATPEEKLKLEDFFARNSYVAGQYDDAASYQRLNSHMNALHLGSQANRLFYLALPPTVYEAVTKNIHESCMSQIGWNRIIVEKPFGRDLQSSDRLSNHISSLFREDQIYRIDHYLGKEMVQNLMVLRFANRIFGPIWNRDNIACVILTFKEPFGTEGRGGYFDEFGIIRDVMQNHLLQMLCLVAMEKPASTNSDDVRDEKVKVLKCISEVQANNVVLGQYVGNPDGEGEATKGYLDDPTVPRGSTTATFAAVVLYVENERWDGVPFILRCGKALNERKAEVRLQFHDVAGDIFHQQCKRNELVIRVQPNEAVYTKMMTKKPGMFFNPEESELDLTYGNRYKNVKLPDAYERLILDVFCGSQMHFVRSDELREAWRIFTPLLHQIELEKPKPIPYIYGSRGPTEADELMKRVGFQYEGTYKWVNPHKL

Aminopeptidase N = biological target: T5, Aminopeptidase N (Plasmodium falciparum FcB1/Columbia, UniProt O96935); assay: P. falciparum M1AAP inhibitors, biochemical, fluorogenic H-Leu-NHMec substrate, 1536-well (AID 1445); parameters: species or system Plasmodium falciparum 3D7, 3D7
T5 sequence (O96935 whole entry): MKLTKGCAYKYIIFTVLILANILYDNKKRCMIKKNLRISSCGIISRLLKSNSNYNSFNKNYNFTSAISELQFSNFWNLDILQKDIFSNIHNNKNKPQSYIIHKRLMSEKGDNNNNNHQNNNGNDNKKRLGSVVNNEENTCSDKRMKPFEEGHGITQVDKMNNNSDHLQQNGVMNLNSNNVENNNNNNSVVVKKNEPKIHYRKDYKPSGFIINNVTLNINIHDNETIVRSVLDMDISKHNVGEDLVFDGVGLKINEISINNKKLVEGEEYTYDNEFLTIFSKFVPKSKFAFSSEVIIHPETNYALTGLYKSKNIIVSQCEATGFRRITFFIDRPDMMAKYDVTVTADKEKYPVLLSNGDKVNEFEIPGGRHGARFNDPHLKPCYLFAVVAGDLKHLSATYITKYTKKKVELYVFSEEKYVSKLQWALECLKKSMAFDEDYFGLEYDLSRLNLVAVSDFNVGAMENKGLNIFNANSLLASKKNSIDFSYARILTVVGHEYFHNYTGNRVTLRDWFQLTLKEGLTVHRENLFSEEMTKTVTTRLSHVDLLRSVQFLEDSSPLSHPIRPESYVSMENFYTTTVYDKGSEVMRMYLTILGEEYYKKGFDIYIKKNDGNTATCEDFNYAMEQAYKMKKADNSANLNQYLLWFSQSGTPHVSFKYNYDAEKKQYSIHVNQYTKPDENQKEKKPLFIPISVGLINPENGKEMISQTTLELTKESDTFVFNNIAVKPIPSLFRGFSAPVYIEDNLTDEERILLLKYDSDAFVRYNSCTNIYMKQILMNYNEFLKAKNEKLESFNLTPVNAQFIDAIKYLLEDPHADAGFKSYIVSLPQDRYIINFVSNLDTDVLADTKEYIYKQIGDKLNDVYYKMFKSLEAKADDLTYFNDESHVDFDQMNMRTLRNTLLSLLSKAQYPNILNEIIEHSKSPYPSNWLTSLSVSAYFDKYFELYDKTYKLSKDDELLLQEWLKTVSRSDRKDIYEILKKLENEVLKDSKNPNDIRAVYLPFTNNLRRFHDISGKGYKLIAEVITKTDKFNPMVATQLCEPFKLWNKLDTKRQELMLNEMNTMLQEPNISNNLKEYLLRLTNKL

[11] = biological target: T6, RNA-binding protein pos-1 (Caenorhabditis elegans, UniProt G5EF15); assay: inhibitors of POS-1/mex-3 RNA binding, dose response, biochemical, fluorescence polarization (AID 1964);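 further: purified POS-1 fused to maltose binding protein made in E. coli; potency of compounds blocking POS-1 binding to fluorescent RNA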
T6 sequence (G5EF15 whole entry): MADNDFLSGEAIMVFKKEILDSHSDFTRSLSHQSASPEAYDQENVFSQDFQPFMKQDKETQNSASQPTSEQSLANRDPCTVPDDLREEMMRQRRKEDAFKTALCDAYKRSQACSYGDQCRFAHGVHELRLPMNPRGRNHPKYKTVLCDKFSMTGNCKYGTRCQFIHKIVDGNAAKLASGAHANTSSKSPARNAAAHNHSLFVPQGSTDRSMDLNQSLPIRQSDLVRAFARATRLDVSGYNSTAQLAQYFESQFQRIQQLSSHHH

[12] = biological target: T7, Zinc finger protein mex-5 (Caenorhabditis elegans, UniProt Q9XUB2); assay: MEX-5/TCR-2 RNA interaction inhibitors, dose response, biochemical, C. elegans, fluorescence polarization (AID 1960)
T7 sequence (Q9XUB2 whole entry): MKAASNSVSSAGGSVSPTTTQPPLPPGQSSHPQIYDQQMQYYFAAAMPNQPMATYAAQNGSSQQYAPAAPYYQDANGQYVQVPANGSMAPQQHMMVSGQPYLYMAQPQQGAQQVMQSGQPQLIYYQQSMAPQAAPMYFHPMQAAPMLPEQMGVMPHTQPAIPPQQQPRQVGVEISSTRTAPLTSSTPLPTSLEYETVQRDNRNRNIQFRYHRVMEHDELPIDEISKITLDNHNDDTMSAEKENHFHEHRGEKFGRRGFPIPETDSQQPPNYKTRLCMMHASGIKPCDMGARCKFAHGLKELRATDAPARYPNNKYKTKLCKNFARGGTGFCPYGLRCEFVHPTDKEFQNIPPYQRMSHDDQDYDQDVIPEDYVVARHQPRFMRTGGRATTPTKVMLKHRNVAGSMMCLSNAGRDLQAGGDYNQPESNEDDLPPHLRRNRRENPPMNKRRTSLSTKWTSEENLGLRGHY

Large T antigen = Large T antigen (Simian virus 40, UniProt P03070); assay type: functional, Betapolyomavirus macacae;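 further: Confirmatory-stage PubChem screen for compounds that inhibit SV40 T antigen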
Large T antigen, sequence (P03070 whole entry): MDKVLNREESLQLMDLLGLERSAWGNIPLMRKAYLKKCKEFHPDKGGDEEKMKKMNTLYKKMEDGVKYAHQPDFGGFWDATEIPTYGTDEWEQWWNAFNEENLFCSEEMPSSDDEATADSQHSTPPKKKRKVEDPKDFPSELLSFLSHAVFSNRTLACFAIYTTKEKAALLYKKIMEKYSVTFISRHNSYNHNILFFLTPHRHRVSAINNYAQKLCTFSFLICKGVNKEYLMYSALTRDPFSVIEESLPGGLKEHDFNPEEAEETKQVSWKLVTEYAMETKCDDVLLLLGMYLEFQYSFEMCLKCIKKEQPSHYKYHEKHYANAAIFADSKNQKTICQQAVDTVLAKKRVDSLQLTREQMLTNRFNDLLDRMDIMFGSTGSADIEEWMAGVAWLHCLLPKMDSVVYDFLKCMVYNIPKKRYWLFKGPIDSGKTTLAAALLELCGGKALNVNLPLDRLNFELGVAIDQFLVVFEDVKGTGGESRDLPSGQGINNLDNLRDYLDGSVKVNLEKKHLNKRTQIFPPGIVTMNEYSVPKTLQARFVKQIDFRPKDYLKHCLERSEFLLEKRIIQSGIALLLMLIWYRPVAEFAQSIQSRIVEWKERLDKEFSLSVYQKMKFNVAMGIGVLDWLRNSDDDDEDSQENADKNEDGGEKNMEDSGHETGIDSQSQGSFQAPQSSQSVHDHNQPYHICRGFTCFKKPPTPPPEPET

Cytochrome P450 3A4 [13] = biological target: T1, Cytochrome P450 3A4

T1 sequence (P08684 whole entry): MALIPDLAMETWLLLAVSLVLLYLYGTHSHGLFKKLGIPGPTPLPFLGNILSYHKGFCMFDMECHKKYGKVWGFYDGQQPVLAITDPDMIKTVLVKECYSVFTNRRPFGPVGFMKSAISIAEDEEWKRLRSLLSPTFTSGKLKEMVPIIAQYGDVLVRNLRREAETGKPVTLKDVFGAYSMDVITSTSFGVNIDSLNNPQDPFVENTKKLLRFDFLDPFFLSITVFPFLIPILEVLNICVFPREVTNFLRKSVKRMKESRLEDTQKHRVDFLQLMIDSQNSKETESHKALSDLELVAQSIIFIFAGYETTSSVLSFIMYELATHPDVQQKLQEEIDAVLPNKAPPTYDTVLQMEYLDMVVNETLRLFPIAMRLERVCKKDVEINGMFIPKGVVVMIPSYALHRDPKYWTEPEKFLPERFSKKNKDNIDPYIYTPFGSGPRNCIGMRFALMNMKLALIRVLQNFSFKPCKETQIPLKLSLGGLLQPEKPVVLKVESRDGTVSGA

Cc1nc(C)c(/C(O)=C/c2nc3ccccc3oc2=O)s1
CC50 [1]: > 40 µM (active)
IC50 (cells [2]): 3.09 µM (active)

Cc1ncc(CN2CC=C(c3ccccc3)CC2)c(N)n1
AC50 (Cytochrome P450 3A4 [3]): 25.1 µM (inconclusive)

Cc1cc(C)cc(N(C(=O)c2snc(C(N)=O)c2N)C(C(=O)NCC2CCCO2)c2ccc(C)o2)c1 (stereo unspecified)
IC50 [4]: > 20 µM (inactive)

CCn1c(SCc2nc(-c3ccc(OC)c(OC)c3)no2)nnc1-c1cccs1
IC50 [5]: 11.2 µM (active)

CCCc1nc(SCC(=O)Nc2nc3c(s2)CCCC3)c2ccccc2n1
IC50 (Melanocortin receptor 4): > 64.6 µM (inactive)
IC50 [6]: > 64.6 µM (inactive)

COC(=O)COc1ccc(-c2ccc(F)cc2)cc1C=O
IC50 (cells [2]): 3.51 µM (active)

O=C1NN(c2ccccc2)C(=O)/C1=C\c1ccccc1OCC(=O)N1CCOCC1
IC50 (Genome polyprotein): > 100 µM (active)

CN1C(=O)C2CN(CCc3ccccc3)CNC2N(C)C1=O (stereo unspecified)
IC50 (cells [7]): > 29.9 µM (inactive)
EC50 (cells [8]): > 29.9 µM (inactive)

Cc1cc(C)c(NC(=O)C2CCCN2CCC(C)C)c(C)c1 (stereo unspecified)
AC50 (HeLa): > 52 µM (inactive)

O=C(CSc1nccc(O)n1)N1CCc2ccccc2C1
IC50 (cells [7]): > 29.9 µM (inactive)
EC50 (cells [8]): > 29.9 µM (inactive)

Cc1cnc(C)c(N2CCN(Cc3nc(-c4cccc(F)c4F)oc3C)CC2)n1
IC50 [5]: 15.1 µM (active)

CC(C)OCCCNc1nc2c(-c3ccccc3)nnn2c2ccccc12
IC50 [4]: > 20 µM (inactive)

O=C1/C(=C/C=C/c2ccccc2)Oc2c1ccc(O)c2CN1CCN(CCO)CC1
CC50 [1]: > 40 µM (active)
IC50 (cells [2]): 23.3 µM (active)

O=C(Nc1ccc(F)c([N+](=O)[O-])c1)C1CC(=O)N(Cc2ccccc2)C1 (stereo unspecified)
IC50 (Melanocortin receptor 4): > 64.6 µM (inactive)
IC50 [6]: > 64.6 µM (inactive)

C=CC(=O)OCCCCCCOC(=O)C=C
AC50 (Cytochrome P450 3A4 [3]): 25.1 µM (inconclusive)

CC(NC(=O)c1ccc(F)cc1)c1ccc2c(c1)CCCC2 (stereo unspecified)
IC50 [5]: 20.9 µM (active)

Cc1cccc(NC(=O)CSCC(=O)N(C)Cc2ccc(Cl)c(Cl)c2)c1
IC50 [9]: > 100 µM (inactive)

COc1ccc(/C=C2/SC(=S)N(CC(=O)O)C2=O)cc1OCc1ccc(Cl)cc1
IC50 (Genome polyprotein): > 100 µM (active)

CN(C)CCCN1C(=O)C(O)=C(C(=O)c2cc3ccccc3o2)C1c1ccccn1 (stereo unspecified)
IC50 (Melanocortin receptor 4): > 64.6 µM (inactive)
IC50 [6]: > 64.6 µM (inactive)

C[C@@H]1CN([C@@H](C)CO)C(=O)CCCn2nncc2CO[C@@H]1CN(C)Cc1cccc(C(F)(F)F)c1
AC50 (HeLa): > 52 µM (inactive)

CC(/C=C(\O)c1ccc(Br)cc1)=N/NC(=O)c1ccccc1
CC50 [1]: 22.2 µM (active)

O=C(O)c1cccc(N2C(=O)C=CC2=O)c1
IC50 [10]: > 80 µM (inactive)
IC50 (Genome polyprotein): 76.9 µM (active)

CN1CCc2cc3c(cc2C(=O)Cc2ccc4c(c2C1)OCO4)OCO3
AC50 (Cytochrome P450 3A4 [3]): 25.1 µM (inconclusive)

O=c1cc(-c2ccc(O)c(O)c2)oc2cc(O)cc(O)c12 [LUTEOLIN]
IC50 (Aminopeptidase N): 22.9 µM (active)
EC50 [11]: 60.4 µM (active)
EC50 [12]: 31 µM (active)
IC50 (Large T antigen): 11.9 µM (active)
AC50 (Cytochrome P450 3A4 [13]): 5.01 µM (inconclusive)
